pIC50: −log10 of the molar value.
Columns and labels:
[1] = AUC in rat at 30 mg/kg, po; format: ADME, organism-based; parameters: dose 30 mg/kg, route oral; details: plasma
[2] = Half life in rat at 1 mg/kg, iv; format: ADME, organism-based; parameters: dose 1 mg/kg, route intravenous; details: in vivo
[3] = Half life in rat at 30 mg/kg, po; format: ADME, organism-based; parameters: dose 30 mg/kg, route oral; details: in vivo
[4] = Clearance in rat at 1 mg/kg, iv; format: ADME, organism-based; parameters: dose 1 mg/kg, route intravenous; details: in vivo
[5] = Oral bioavailability in rat at 30 mg/kg; format: ADME, organism-based; details: in vivo
[6] = target: T1, Cysteinyl leukotriene receptor 2 (Homo sapiens, UniProt Q9NS75); assay: Antagonist activity at human CysLT2 receptor expressed in HEK293 cells assessed as inhibition of LTD4-inudced intracellular calcium influx preincubated for 30 mins before LTD4 addition by Fura2-AM assay; format: functional, cell-based
T1 sequence (Q9NS75 whole entry): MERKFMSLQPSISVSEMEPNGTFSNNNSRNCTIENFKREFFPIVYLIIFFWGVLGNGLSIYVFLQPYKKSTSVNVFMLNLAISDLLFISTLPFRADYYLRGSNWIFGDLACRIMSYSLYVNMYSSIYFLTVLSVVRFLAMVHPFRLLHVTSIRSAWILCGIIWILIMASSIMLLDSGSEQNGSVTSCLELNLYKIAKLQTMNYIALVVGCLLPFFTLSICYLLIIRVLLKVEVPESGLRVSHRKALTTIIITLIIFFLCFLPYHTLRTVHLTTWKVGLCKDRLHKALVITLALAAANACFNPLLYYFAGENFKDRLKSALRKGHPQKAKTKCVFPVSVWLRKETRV

[7] = Apparent permeability across apical to basolateral or basolateral to apical side in human Caco2 cells at 1 uM after 2 hrs by LC/MS/MS analysis; format: ADME, cell-based; details: Caco-2
[8] = Cmax in rat at 30 mg/kg, po; format: ADME, organism-based; parameters: dose 30 mg/kg, route oral; details: in vivo
[9] = AUCinf in rat at 1 mg/kg, iv; format: ADME, organism-based; parameters: dose 1 mg/kg, route intravenous, time infinity; details: plasma
[10] = Volume of distribution at steady state in rat at 1 mg/kg, iv; format: ADME, organism-based; parameters: dose 1 mg/kg, route intravenous; details: in vivo, read-out: Vdss
[11] = target: T2, Cysteinyl leukotriene receptor 1 (Homo sapiens, UniProt Q9Y271); assay: Antagonist activity at human CysLT1 receptor expressed in CHO cells assessed as inhibition of LTD4-inudced intracellular calcium influx preincubated for 30 mins before LTD4 addition by Fura2-AM assay; format: functional, cell-based
T2 sequence (Q9Y271 whole entry): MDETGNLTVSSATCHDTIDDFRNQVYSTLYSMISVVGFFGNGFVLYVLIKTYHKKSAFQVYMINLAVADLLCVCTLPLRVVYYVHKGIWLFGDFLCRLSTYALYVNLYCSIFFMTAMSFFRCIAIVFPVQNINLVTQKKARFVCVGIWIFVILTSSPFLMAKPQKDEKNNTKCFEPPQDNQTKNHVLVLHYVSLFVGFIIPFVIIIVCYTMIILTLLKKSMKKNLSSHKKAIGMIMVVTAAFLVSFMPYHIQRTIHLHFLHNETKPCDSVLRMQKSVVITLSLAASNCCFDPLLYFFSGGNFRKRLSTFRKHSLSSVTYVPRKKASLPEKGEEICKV

[12] = Apparent permeability of the compound at pH 6.2 by PAMPA; format: physicochemical
[13] = Apparent permeability of the compound at pH 7.4 by PAMPA; format: physicochemical
[14] = Half life in rat at 10 mg/kg, po; format: ADME, organism-based; parameters: dose 10 mg/kg, route oral; details: in vivo
[15] = AUC in rat at 10 mg/kg, po; format: ADME, organism-based; parameters: dose 10 mg/kg, route oral; details: plasma
Cavia porcellus [16] = assay: In vivo inhibition of CysLT1 receptor in po dosed guinea pig assessed as reduction in LTD4-induced bronchoconstriction; format: functional, organism-based
[17] = Cmax in rat at 10 mg/kg, po; format: ADME, organism-based; parameters: dose 10 mg/kg, route oral; details: in vivo
[18] = Oral bioavailability in rat at 10 mg/kg; format: ADME, organism-based; details: in vivo
Cavia porcellus [19] = assay: In vivo inhibition of CysLT1 receptor in guinea pig assessed as reduction in LTD4-induced bronchoconstriction at 3 mg/kg, po relative to vehicle treated control; format: functional

Row | Structure (SMILES) | AUC [1] [ng·h/mL] | half-life [2] [h] | half-life [3] [h] | clearance [4] [mL/min/kg] | bioavailability [5] [%] | pIC50 [6] | Papp at 2 h, 1 µM [7] [×10⁻⁶ cm/s] | Cmax [8] [ng/mL] | AUC(0-inf) [9] [ng·h/mL] | Vd [10] [L/kg] | pIC50 [11] | Papp [12] [×10⁻⁶ cm/s] | Papp [13] [×10⁻⁶ cm/s] | half-life [14] [h] | AUC [15] [ng·h/mL] | inhibition (Cavia porcellus [16]) | Cmax [17] [ng/mL] | bioavailability [18] [%] | inhibition in vivo at 3 mg/kg (Cavia porcellus [19]) [%]
1 | O=C(O)CCCN1CC(C(=O)O)Oc2c(CCc3ccc(OCCCCc4ccccc4)cc3)cccc21 (stereo unspecified) | 88000 | 6 | 2.5 | 4.8 | 79 | 7.80 | 2.8 | 12000 | 3700 | 1.46 | 7.09 | – | – | – | – | – | – | – | –
2 | O=C(O)CCCOc1nc2cccc(/C=C/c3ccc(OCCCCOc4ccccc4)cc3)c2nc1C(=O)O | – | – | – | – | – | 7.12 | 11 | – | – | – | 6.31 | 11 | < 0.1 | – | – | – | – | – | –
3 | O=C(O)CCCN1CCOc2c(NC(=O)c3ccc(OCCCCc4ccccc4)cc3)cccc21 | – | – | – | – | – | 5.37 | 0.17 | – | – | – | 5.72 | – | – | – | – | – | – | – | –
4 | O=C(O)CCCN1CC(C(=O)O)Oc2c(NC(=O)c3ccc(OCCCCc4ccccc4)cc3)cccc21 (stereo unspecified) | – | – | 3.2 | – | – | – | 0.18 | 210 | 3500 | 0.104 | – | – | – | – | – | – | – | – | –
5 | O=C(O)CCCN1CC(CO)Oc2c(NC(=O)c3ccc(OCCCCc4ccccc4)cc3)cccc21 (stereo unspecified) | – | – | – | – | – | 6.39 | 0.17 | – | – | – | 6.13 | – | – | – | – | – | – | – | –
6 | CS(=O)(=O)NC(=O)C1CN(CCCC(=O)O)c2cccc(NC(=O)c3ccc(OCCCCc4ccccc4)cc3)c2O1 (stereo unspecified) | – | – | – | – | – | 7.80 | 0.06 | – | – | – | 7.66 | – | – | – | – | – | – | – | –
7 | O=C(O)CCCN1CC(C(=O)NS(=O)(=O)c2ccccc2)Oc2c(NC(=O)c3ccc(OCCCCc4ccccc4)cc3)cccc21 (stereo unspecified) | – | – | – | – | – | 8.24 | 0.06 | – | – | – | 7.15 | – | – | – | – | – | – | – | –
8 | O=C(O)CCCn1cc(CC(=O)O)c2c(/C=C/c3ccc(OCCCCOc4ccccc4)cc3)cccc21 | – | 7.1 | – | 0.65 | – | – | – | – | 28000 | 0.208 | – | – | – | 4.7 | 324000 | Dose-dependent effect | 33000 | 100 | 45
9 | O=C(O)CCCN1CC(C(=O)O)Oc2c(OCc3ccc(OCCCCc4ccccc4)cc3)cccc21 (stereo unspecified) | 48000 | 6 | 7.4 | 2.2 | 20 | – | 0.74 | 5600 | 7900 | 0.18 | 7.24 | – | – | – | – | – | – | – | –
10 | O=C(O)CCCN1CC(c2nnn[nH]2)Oc2c(/C=C/c3ccc(OCCCCc4ccccc4)cc3)cccc21 (stereo unspecified) | – | – | – | – | – | 8.47 | 0.16 | – | – | – | 9.23 | – | – | – | – | – | – | – | –
11 | O=C(O)CCCN1CC(c2nnn[nH]2)Oc2c(CCc3ccc(OCCCCc4ccccc4)cc3)cccc21 (stereo unspecified) | – | 3.8 | – | 15 | – | 7.82 | 0.52 | – | 1200 | 0.999 | 7.46 | – | – | 2.9 | 1800 | – | 400 | 15 | –
12 | O=C(O)CCCn1cc(C(=O)O)c(=O)c2c(/C=C/c3ccc(OCCCCOc4ccccc4)cc3)cccc21 | – | – | – | – | – | 6.43 | 13 | – | – | – | 6.60 | 13 | 12 | – | – | – | – | – | –
13 | O=C(O)CCCN1CC(C(=O)O)Oc2c(/C=C/c3ccc(OCCCCOc4ccccc4)cc3)cccc21 (stereo unspecified) | – | – | – | – | – | 9.51 | 7.8 | – | – | – | 7.62 | 7.8 | < 0.1 | – | – | – | – | – | –
14 | O=C(O)CCCN1CC(C(=O)O)Oc2c(/C=C/c3ccc(OCCCCc4ccccc4)cc3)cccc21 (stereo unspecified) | 203000 | 5.6 | 3.6 | 0.77 | 29 | 8.24 | 1.3 | 21000 | 24000 | 0.365 | 7.15 | 1.1 | 0.1 | – | – | – | – | – | –
15 | O=C(O)CCCN1CC(c2nnn[nH]2)Oc2c(NC(=O)c3ccc(OCCCCc4ccccc4)cc3)cccc21 (stereo unspecified) | 700 | 4 | 11 | 7.8 | 1 | 9.31 | 0.11 | 40 | 2100 | 0.342 | 9.10 | – | – | – | – | – | – | – | –
